Data as given in article PMC7898037, “Improving mitochondria and ER stability helps eliminate upper motor neuron degeneration that occurs due to mSOD1 toxicity and TDP‐43 pathology” (Clinical and Translational Medicine, 2021).

System: hSOD1^G93A‐UeGFP mice
Assay: Hanging wire test (max 60 s), hSOD1^G93A‐UeGFP mice
Assay type: in vivo
Set-up: Mean Diff. (wire hanging), vehicle vs. NU-9 / Mean (wire hanging): unit not given here
Conditions: for Hanging wire test, group mean (Mean 1 / Mean 2): hSOD1G93A-UeGFP (GS) mice; for wire hanging, Average / Mean (wire hanging): hSOD1G93A-UeGFP
Experimental: hSOD1^G93A‐UeGFP, prpTDP‐43^A315T‐UeGFP and WT‐UeGFP mice were weighed and the required NU‐9 dose per weight was calculated (20 or 100 mg/kg), which was administered once daily by oral gavage, starting at postnatal day (P)60 and continuing until P120. Animals from the untreated group received the vehicle (NMP and olive oil) only. For oral administration purposes, 20 ga × 38 mm plastic feeding tubes were used (Instech Laboratories, Inc). The gavage tip was inserted into the mouth directly over the tongue and into the pharynx. While observing the swallowing reflex, the tip was safely and smoothly slid into the esophagus. Once the administration was completed, the gavage tip was pulled straight out.
Behavior data were collected from hSOD1^G93A‐UeGFP and WT‐UeGFP mice (starting at P60 and every 7 days until P116) and from prpTDP‐43^A315T‐UeGFP mice (at P60, P90, and P120) with the following number of mice for each group: WT‐UeGFP vehicle (n = 10), hSOD1^G93A‐UeGFP vehicle (n = 6), WT‐UeGFP 20 mg/kg/day NU‐9 (n = 5), hSOD1^G93A‐UeGFP 20 mg/kg/day NU‐9 (n = 7), WT‐UeGFP 100 mg/kg/day NU‐9 (n = 11), hSOD1^G93A‐UeGFP 100 mg/kg/day NU‐9 (n = 9), prpTDP‐43^A315T‐UeGFP untreated (n ≥ 3), and prpTDP‐43^A315T‐UeGFP 100 mg/kg/day NU‐9 (n = 4) (Table S3).
Mice were placed on a wire mesh, which was then inverted and suspended above the home cage; the time when the animal fell was recorded. This test was performed three times for a maximum of 60 s each session, with a 1‐min rest period between each trial. The average performance for each session is presented as the average of the three trials.

C[C@H](Oc1cc(C(F)(F)F)cc(C(F)(F)F)c1)C1CC(=O)CC(=O)C1 [NU‐9]
Hanging wire test, group mean (Mean 1 / Mean 2) (NU-9 20 mg/kg/day, P102, max 60 s): 43 s | Hanging wire test, group mean (Mean 1 / Mean 2) (NU-9 20 mg/kg/day, P109, max 60 s): 37.48 s | Hanging wire test, group mean (Mean 1 / Mean 2) (NU-9 20 mg/kg/day, P116, max 60 s): 27.33 s | Hanging wire test, group mean (Mean 1 / Mean 2) (NU-9 100 mg/kg/day, P102, max 60 s): 53.3 s | Hanging wire test, group mean (Mean 1 / Mean 2) (NU-9 100 mg/kg/day, P109, max 60 s): 58.89 s | Hanging wire test, group mean (Mean 1 / Mean 2) (NU-9 100 mg/kg/day, P116, max 60 s): 51.15 s | Hanging wire test, mean difference vehicle minus NU-9 (hSOD1G93A-UeGFP (GS) vehicle vs. NU-9 20 mg/kg/day, P102): -0.6667 s | Hanging wire test, mean difference vehicle minus NU-9 (hSOD1G93A-UeGFP (GS) vehicle vs. NU-9 20 mg/kg/day, P109): 6.746 s | Hanging wire test, mean difference vehicle minus NU-9 (hSOD1G93A-UeGFP (GS) vehicle vs. NU-9 20 mg/kg/day, P116): -4.722 s | Hanging wire test, mean difference vehicle minus NU-9 (hSOD1G93A-UeGFP (GS) vehicle vs. NU-9 100 mg/kg/day, P102): -10.96 s | Hanging wire test, mean difference vehicle minus NU-9 (hSOD1G93A-UeGFP (GS) vehicle vs. NU-9 100 mg/kg/day, P109): -14.67 s | Hanging wire test, mean difference vehicle minus NU-9 (hSOD1G93A-UeGFP (GS) vehicle vs. NU-9 100 mg/kg/day, P116): -28.54 s | Mean Diff. (wire hanging), vehicle vs. NU-9 (hSOD1G93A-UeGFP vehicle vs. NU-9 20 mg/kg/day, P60): -0.5238 | Mean Diff. (wire hanging), vehicle vs. NU-9 (hSOD1G93A-UeGFP vehicle vs. NU-9 20 mg/kg/day, P67): 4.175 | Mean Diff. (wire hanging), vehicle vs. NU-9 (hSOD1G93A-UeGFP vehicle vs. NU-9 20 mg/kg/day, P74): -3.46 | Mean Diff. (wire hanging), vehicle vs. NU-9 (hSOD1G93A-UeGFP vehicle vs. NU-9 20 mg/kg/day, P81): -1.095 | Mean Diff. (wire hanging), vehicle vs. NU-9 (hSOD1G93A-UeGFP vehicle vs. NU-9 20 mg/kg/day, P88): -2.452 | Mean Diff. (wire hanging), vehicle vs. NU-9 (hSOD1G93A-UeGFP vehicle vs. NU-9 20 mg/kg/day, P95): -5.254 | Mean Diff. (wire hanging), vehicle vs. NU-9 (hSOD1G93A-UeGFP vehicle vs. NU-9 20 mg/kg/day, P102): -0.6667 | Mean Diff. (wire hanging), vehicle vs. NU-9 (hSOD1G93A-UeGFP vehicle vs. NU-9 20 mg/kg/day, P109): 6.746 | Mean Diff. (wire hanging), vehicle vs. NU-9 (hSOD1G93A-UeGFP vehicle vs. NU-9 20 mg/kg/day, P116): -4.722 | Mean Diff. (wire hanging), vehicle vs. NU-9 (hSOD1G93A-UeGFP vehicle vs. NU-9 100 mg/kg/day, P60): -5.333 | Mean Diff. (wire hanging), vehicle vs. NU-9 (hSOD1G93A-UeGFP vehicle vs. NU-9 100 mg/kg/day, P67): 1.222 | Mean Diff. (wire hanging), vehicle vs. NU-9 (hSOD1G93A-UeGFP vehicle vs. NU-9 100 mg/kg/day, P74): -7.519 | Mean Diff. (wire hanging), vehicle vs. NU-9 (hSOD1G93A-UeGFP vehicle vs. NU-9 100 mg/kg/day, P81): -5.148 | Mean Diff. (wire hanging), vehicle vs. NU-9 (hSOD1G93A-UeGFP vehicle vs. NU-9 100 mg/kg/day, P88): -9.13 | Mean Diff. (wire hanging), vehicle vs. NU-9 (hSOD1G93A-UeGFP vehicle vs. NU-9 100 mg/kg/day, P95): -7.704 | Mean Diff. (wire hanging), vehicle vs. NU-9 (hSOD1G93A-UeGFP vehicle vs. NU-9 100 mg/kg/day, P102): -10.96 | Mean Diff. (wire hanging), vehicle vs. NU-9 (hSOD1G93A-UeGFP vehicle vs. NU-9 100 mg/kg/day, P109): -14.67 | Mean Diff. (wire hanging), vehicle vs. NU-9 (hSOD1G93A-UeGFP vehicle vs. NU-9 100 mg/kg/day, P116): -28.54 | wire hanging, Average (NU-9 20 mg/kg/day po, P60): 55.1905 s | wire hanging, Average (NU-9 20 mg/kg/day po, P67): 51.7143 s | wire hanging, Average (NU-9 20 mg/kg/day po, P74): 55.2381 s | wire hanging, Average (NU-9 20 mg/kg/day po, P81): 54.0952 s | wire hanging, Average (NU-9 20 mg/kg/day po, P88): 52.9524 s | wire hanging, Average (NU-9 20 mg/kg/day po, P95): 54.8095 s | wire hanging, Average (NU-9 20 mg/kg/day po, P102): 43 s | wire hanging, Average (NU-9 20 mg/kg/day po, P109): 37.4762 s | wire hanging, Average (NU-9 20 mg/kg/day po, P116): 27.3333 s | Mean (wire hanging) (NU-9 20 mg/kg/day, P60): 55.19 | Mean (wire hanging) (NU-9 20 mg/kg/day, P67): 51.71 | Mean (wire hanging) (NU-9 20 mg/kg/day, P74): 55.24 | Mean (wire hanging) (NU-9 20 mg/kg/day, P81): 54.1 | Mean (wire hanging) (NU-9 20 mg/kg/day, P88): 52.95 | Mean (wire hanging) (NU-9 20 mg/kg/day, P95): 54.81 | wire hanging, Average (NU-9 100 mg/kg/day po, P60): 60 s | wire hanging, Average (NU-9 100 mg/kg/day po, P67): 54.6667 s | wire hanging, Average (NU-9 100 mg/kg/day po, P74): 59.2963 s | wire hanging, Average (NU-9 100 mg/kg/day po, P81): 58.1481 s | wire hanging, Average (NU-9 100 mg/kg/day po, P88): 59.6296 s | wire hanging, Average (NU-9 100 mg/kg/day po, P95): 57.2593 s | wire hanging, Average (NU-9 100 mg/kg/day po, P102): 53.2963 s | wire hanging, Average (NU-9 100 mg/kg/day po, P109): 58.8889 s | wire hanging, Average (NU-9 100 mg/kg/day po, P116): 51.1481 s | Mean (wire hanging) (NU-9 100 mg/kg/day, P60): 60 | Mean (wire hanging) (NU-9 100 mg/kg/day, P67): 54.67 | Mean (wire hanging) (NU-9 100 mg/kg/day, P74): 59.3 | Mean (wire hanging) (NU-9 100 mg/kg/day, P81): 58.15 | Mean (wire hanging) (NU-9 100 mg/kg/day, P88): 59.63 | Mean (wire hanging) (NU-9 100 mg/kg/day, P95): 57.26 | hanging wire test, latency to fall (hSOD1^G93A‐UeGFP mice, 100 mg/kg/day, P102): 53.3 ± 2.9 s
